According to PubChem BioAssay (NCI):
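Five compound concentrations were applied to cells in 96-well plates for 48 hours; endpoints were derived by simple linear interpolation of the resulting dose-response curve. TGI: concentration producing complete growth inhibition.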

Experiments:
Test in all cases: NCI-60 cell line screen, 48 h
[1] = test system: 786-0 renal
[2] = test system: A498 renal
[3] = test system: A549 NSCLC
[4] = test system: ACHN renal
[5] = test system: CAKI-1 renal
[6] = test system: CCRF-CEM leukemia
[7] = test system: COLO 205 colon
[8] = test system: DLD-1 colon
[9] = test system: DMS 114 small cell lung
[10] = test system: DMS 273 small cell lung
[11] = test system: EKVX NSCLC
[12] = test system: HCT-116 colon
[13] = test system: HCT-15 colon
[14] = test system: HL-60(TB) leukemia
[15] = test system: HOP-18 NSCLC
[16] = test system: HOP-62 NSCLC
[17] = test system: HOP-92 NSCLC
[18] = test system: HT29 colon
[19] = test system: IGROV1 ovarian
[20] = test system: K-562 leukemia
[21] = test system: KM12 colon
[22] = test system: KM20L2 colon
[23] = test system: LOX IMVI melanoma
[24] = test system: LXFL 529 NSCLC
[25] = test system: M14 melanoma
[26] = test system: M19-MEL melanoma
[27] = test system: MALME-3M melanoma
[28] = test system: MOLT-4 leukemia
[29] = test system: NCI-H226 lung
[30] = test system: NCI-H23 lung
[31] = test system: NCI-H460 lung
[32] = test system: NCI-H522 lung
[33] = test system: OVCAR-3 ovarian
[34] = test system: OVCAR-4 ovarian
[35] = test system: OVCAR-5 ovarian
[36] = test system: OVCAR-8 ovarian
[37] = test system: RPMI-8226 leukemia
[38] = test system: RXF 393 renal
[39] = test system: RXF-631 renal
[40] = test system: SF-268 CNS
[41] = test system: SF-295 CNS
[42] = test system: SF-539 CNS
[43] = test system: SK-MEL-2 melanoma
[44] = test system: SK-MEL-28 melanoma
[45] = test system: SK-MEL-5 melanoma
[46] = test system: SK-OV-3 ovarian
[47] = test system: SN12C renal
[48] = test system: SNB-19 CNS
[49] = test system: SNB-75 CNS
[50] = test system: SNB-78 CNS
[51] = test system: SW-620 colon
[52] = test system: TK-10 renal
[53] = test system: U251 CNS
[54] = test system: UACC-257 melanoma
[55] = test system: UACC-62 melanoma
[56] = test system: UO-31 renal
[57] = test system: XF 498 CNS

Measured: TGI

O=c1[nH]c(Br)nc2c(Br)c[nH]c12
> 100 µM: all assays above
